Experimental data as given in patent publication US7566712B2, “Biaryl piperazinyl-pyridine analogues” (Neurogen Corporation, priority 2003, dated 2009).

molecular target: T1, human capsaicin receptor (Homo sapiens, UniProt Q8NER1); test: Calcium mobilization assay, determination of antagonist activity (Example 6); assay type: cell-based; settings: Table II; determined as described in Example 6 (antagonist activity); "*" = 1 micromolar or less
T1 construct: pBK-CMV expression construct encoding the full length human capsaicin receptor; expressed in transfected cells
T1 sequence (Q8NER1 whole entry): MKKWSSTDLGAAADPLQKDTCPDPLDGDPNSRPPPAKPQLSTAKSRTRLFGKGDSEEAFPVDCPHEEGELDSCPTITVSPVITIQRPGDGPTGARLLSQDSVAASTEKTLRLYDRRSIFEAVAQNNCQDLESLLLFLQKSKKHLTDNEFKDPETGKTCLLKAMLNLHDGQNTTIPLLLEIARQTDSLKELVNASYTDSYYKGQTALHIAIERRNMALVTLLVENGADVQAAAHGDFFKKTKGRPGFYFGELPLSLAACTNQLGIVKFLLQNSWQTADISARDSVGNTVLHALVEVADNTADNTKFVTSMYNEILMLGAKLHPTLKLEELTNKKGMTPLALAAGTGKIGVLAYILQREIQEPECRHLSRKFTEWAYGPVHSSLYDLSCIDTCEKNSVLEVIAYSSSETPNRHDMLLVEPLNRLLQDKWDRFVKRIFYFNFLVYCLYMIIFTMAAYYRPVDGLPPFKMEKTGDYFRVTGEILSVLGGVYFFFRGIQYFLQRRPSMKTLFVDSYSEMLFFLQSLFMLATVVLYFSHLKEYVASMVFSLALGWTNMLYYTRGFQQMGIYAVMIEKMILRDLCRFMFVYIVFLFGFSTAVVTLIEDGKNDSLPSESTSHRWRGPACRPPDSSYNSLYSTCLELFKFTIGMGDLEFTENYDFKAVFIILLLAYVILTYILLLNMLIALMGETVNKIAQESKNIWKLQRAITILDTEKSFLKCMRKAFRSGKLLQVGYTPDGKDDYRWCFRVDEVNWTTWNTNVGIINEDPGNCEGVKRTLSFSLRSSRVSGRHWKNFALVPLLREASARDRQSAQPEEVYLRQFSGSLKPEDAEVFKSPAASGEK
In short: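 HEK293 clonal lines stably expressing full-length human capsaicin receptor, loaded with Fluo-3 AM in KRH buffer pH 7.4, 1–2 h at 37 °C. Compounds (1–5 μM final) preincubated 0.5–6 h at room temperature, then capsaicin at its EC50 added. FLIPR/Fluoroskan calcium signal; IC50 as 50% decrease of capsaicin response.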

IC50, ≤ 1000 nM:
Fc1ccc(-c2cc(N3CCN(c4ncccc4C(F)(F)F)CC3)nc(C3CCNCC3)n2)cc1Cl [Example 871, 4-(3-chloro-4-fluorophenyl)-2-piperidin-4-yl-6-{4-[3-(trifluoromethyl)pyridin-2-yl]piperazin-1-yl}pyrimidine]
CCCN1CCC(c2nc(-c3ccc(F)c(Cl)c3)cc(N3CCN(c4ncccc4C(F)(F)F)CC3)n2)CC1 [Example 872, 4-(3-chloro-4-fluorophenyl)-2-(1-propylpiperidin-4-yl)-6-{4-[3-(trifluoromethyl)pyridin-2-yl]piperazin-1-yl}pyrimidine]
Cc1ccc(C)n1-c1nc(-c2ccc(F)cc2)cc(N2CCN(c3ncccc3Cl)C[C@H]2C)n1 [Example 873, 4-((2R)-4-(3-chloropyridin-2-yl)-2-methylpiperazin-1-yl]-2-(2,5-dimethyl-1H-pyrrol-1-yl)-6-(4-fluorophenyl)pyrimidine]
Cc1ccc(C)n1-c1nc(-c2ccc(C#N)cc2)cc(N2CCN(c3ncccc3Cl)C[C@H]2C)n1 [Example 874, 4-[6-[(2R)-4-(3-chloropyridin-2-yl)-2-methypiperazin-1-yl]-2-(2,5-dimethyl-1H-pyrrol-1-yl)pyrimidin-4-yl]benzonitrile]
Cc1ccc(C)n1-c1nc(-c2ccc(F)cc2)cc(N2CCN(c3ncccc3C(F)(F)F)CC2)n1 [Example 875, 2-(2,5-dimethyl-1H-pyrrol-1-yl)-4-(4-fluorophenyl)-6-{4-[3-(trifluoromethyl)pyridin-2-yl]piperazin-1-yl}pyrimidine]
Cc1ccc(C)n1-c1nc(-c2ccc(C#N)cc2)cc(N2CCN(c3ncccc3C(F)(F)F)CC2)n1 [Example 876, 4-(2-(2,5-dimethyl-1H-pyrrol-1-yl)-6-{4-[3-(trifluoromethyl)pyridin-2-yl]piperazin-1-yl}pyrimidin-4-yl)benzonitrie]
Cc1cc(-c2cc(N3CCN(c4ncccc4C(F)(F)F)CC3)nc(-n3c(C)ccc3C)n2)ccc1F [Example 877, 2-(2,5-dimethyl-1H-pyrrol-1-yl)-4-(4-fluoro-3-methylphenyl)-6-{4-[3-(trifluoromethyl)pyridin-2-yl]piperazin-1-yl}pyrimidine]
CN(C)/C=C\C(=O)c1nc(-c2ccc(F)c(F)c2)cc(N2CCN(c3ncccc3C(F)(F)F)CC2)n1 [Example 878, (2Z)-1-(4-(3,4-difluorophenyl)-6-{4-[3-(trifluoromethyl)pyridin-2-yl]piperazin-1-yl}pyrimidin-2-yl)-3-(dimethylamino)prop-2-en-1-one]
C[C@@H]1CN(c2ncccc2Cl)CCN1c1cc(-c2cncc(C#N)c2)nc(N2CCCC2)n1 [Example 879, 5-{6-[(2R)-4-(3-chloropyridin-2-yl)-2-methylpiperazin-1-yl]-2-pyrrolidin-1-ylpyrimidin-4-yl}nicotinonitrile]
CC1CCCN1c1nc(-c2cncc(C#N)c2)cc(N2CCN(c3ncccc3Cl)C[C@H]2C)n1 (stereo partly drawn) [Example 880, 5-[6-[4-(3-chloropyridin-2-yl)-2-methylpiperazin-1-yl]-2-(2-methylpyrrolidin-1-yl)pyrimidin-4-yl]nicotinonitrile]
CC1CCCN1c1nc(-c2cccnc2)cc(N2CCN(c3ncccc3Cl)C[C@H]2C)n1 (stereo partly drawn) [Example 882, 4-[4-(3-chloropyridin-2-yl)-2-methylpiperazin-1-yl]-2-(2-methylpyrrolidin-1-yl)-6-pyridin-3-ylpyrimidine]
C[C@@H]1CN(c2ncccc2Cl)CCN1c1cc(-c2cccnc2)nc(N2CCCC2)n1 [Example 883, 4-[(2R)-4-(3-chloropyridin-2-yl)-2-methylpiperazin-1-yl]-6-pyridin-3-yl-2-pyrrolidin-1-ylpyrimidine]
O=C1CNCCN1c1nc(-c2ccc(F)c(Cl)c2)cc(N2CCN(c3ncccc3C(F)(F)F)CC2)n1 [Example 884, 1-(4-(3-chloro-4-f1uorophenyl)-6-{4-[3-(trifluoromethyl)pyridin-2-yl]piperazin-1-yl}pyrimidin-2-yl)piperazin-2-one]
CCCN1CCN(c2nc(-c3ccc(F)c(Cl)c3)cc(N3CCN(c4ncccc4C(F)(F)F)CC3)n2)C(=O)C1 [Example 885, 1-(4-(3-chloro-4-fluorophenyl)-6-{4-[3-(trifluoromethyl)pyridin-2-yl]piperazin-1-yl}pyrimidin-2-yl)-4-propylpiperazin-2-one]
N#Cc1cncc(-c2cc(N3CCN(c4ncccc4C(F)(F)F)CC3)nc(N3CCCC3)n2)c1 [Example 886, 5-(2-pyrrolidin-1-yl-6-{4-[3-(trifluoromethyl)pyridin-2-yl]piperazin-1-yl}pyrimidin-4-yl)nicotinonitrile]
CC1CCCN1c1nc(-c2cncc(C#N)c2)cc(N2CCN(c3ncccc3C(F)(F)F)CC2)n1 (stereo not drawn) [Example 887, 5-(2-(2-methylpyrrolidin-1-yl)-6-{4-[3-(trifluoromethyl)pyridin-2-yl]piperazin-1-yl}pyrimidin-4-yl)nicotinonitrile]
CCCN1CCN(c2nc(-c3ccc(F)c(Cl)c3)cc(N3CCN(c4ncccc4C)CC3)n2)CC1 [Example 889, 4-(3-chloro-4-fluorophenyl)-6-[4-(3-methylpyridin-2-yl)piperazin-1-yl]-2-(4-propylpiperazin-1-yl)pyrimidine]
C[C@@H]1CN(c2ncccc2Cl)CCN1c1cc(-c2ccc(F)cc2)nc(N2CCN3CCC[C@H]3C2)n1 [Example 890, (8aS)-2-[4-[(2R)-4-(3-chloropyridin-2-yl)-2-methylpiperazin-1-yl]-6-(4-fluorophenyl)pyrimidin-2-yl]octahydropyrrolo[1,2-a]pyrazine]
Fc1ccc(-c2cc(N3CCN(c4ncccc4C(F)(F)F)CC3)nc(N3CCN4CCC[C@H]4C3)n2)cc1Cl [Example 891, (8aS)-2-(4-(3-chloro-4-fluorophenyl)-6-{4-[3-(trifluoromethyl)pyridin-2-yl]piperazin-1-yl}pyrimidin-2-yl)octahydropyrrolo[1,2-a]pyrazine]
FC(F)(F)c1cccnc1N1CCN(c2cc(-c3cccc(Cl)c3)nc(N3CCN4CCC[C@H]4C3)n2)CC1 [Example 892, (8aS)-2-(4-(3-chlorophenyl)-6-{4-[3-(trifluoromethyl)pyridin-2-yl]piperazin-1-yl}pyrimidin-2-yl)octahydropyrrolo[1,2-a]pyrazine]
CN(C)CCC(O)c1nc(-c2ccc(F)c(F)c2)cc(N2CCN(c3ncccc3C(F)(F)F)CC2)n1 (stereo not drawn) [Example 893]
C[C@@H]1CN(c2ncccc2F)CCN1c1cc(-c2ccc(F)c(F)c2)nc(Cl)n1 [Example 894, 2-chloro-4-(3,4-difluorophenyl)-6-[(2R)-4-(3-fluoropyridin-2-yl)-2-methylpiperazin-1-yl]pyrimidine]
CC1CCCN1c1nc(-c2ccc(F)c(F)c2)cc(N2CCN(c3ncccc3F)C[C@H]2C)n1 (stereo partly drawn) [Example 895, 4-(3,4-difluorophenyl)-6-[4-(3-fluoropyridin-2-yl)-2-methylpiperazin-1-yl]-2-(2-methylpyrrolidin-1-yl)pyrimidine]
C[C@@H]1CN(c2ncccc2F)CCN1c1cc(-c2ccc(F)c(F)c2)nc(N2CCCC2)n1 [Example 896, 4-(3,4-difluorophenyl)-6-[(2R)-4-(3-fluoropyridin-2-yl)-2-methylpiperazin-1-yl]-2-pyrrolidin-1-ylpyrimidine]
